The values that follow come from US8450304B2, “4-azetidinyl-1-heteroaryl-cyclohexanol antagonists of CCR2” (Janssen Pharmaceutica N.V., priority 2008, dated 2013).

SMILES strings stand for the structures.

The subject of experiment [1] is total BAL leukocyte count (and eosinophil count). As to the kind of experiment: Mouse model of allergic asthma. It is filed as in vivo. The following applies: 10 mpk, p.o. bid; OVA-sensitized mice; BAL on day 21. The text has this:
(§1) Mouse CCR2 knock-out/human CCR2 knock-in mice were generated using targeted 129Sv/Evbrd embryonic stem cell clones injected into C57BL/6 mice. Expression of the hCCR2 transcript was confirmed by quantitative reverse transcription-polymerase chain reaction performed on spleen and blood total RNA from homozygous hCCR2 knock-in mice. Backcrossing into C57BL/6 genetic background continued to the eighth generation. Transgenic mice were housed in a specific-pathogen-free, temperature-controlled facility that maintained a 12-hour light/12-hour dark cycle. Mice had free access to water and food. […]
Animals were sensitized by intraperitoneal injection of 10 μg chicken egg albumin (OVA) absorbed to 1 mg Imject® in 100 μL phosphate-buffered saline (PBS) on days 0 and 5. […] On day 21, 2 hours post the last dose of CCR2 compounds, bronchial reactivity to aerosolized methacholine was measured using a Buxco whole body plethysmograpgh. […] Bronchoalveolar lavage fluid was collected (1 mL) and total cells counted. The numbers of eosinophils, lymphocytes, monocytes and neutrophils were determined using cytospin analysis after Giemsa staining (Hema Tek 2000). Percent inhibition of total BAL leukocyte count (and eosinophil count) was calculated by comparing the compound-treated mice with vehicle-treated mice. […]

Experiment [2] relates to thioglycollate-induced peritonitis. As to the kind of experiment: Thioglycollate-induced peritonitis in mice. It is filed as in vivo. The following applies: 10 mpk, p.o. bid; 72-hour time point; leukocytes in peritoneal lavage vs vehicle. The text has this:
(§2) Mouse CCR2 knock-out/human CCR2 knock-in mice were generated using targeted 129Sv/Evbrd embryonic stem cell clones injected into C57BL/6 mice. Expression of the hCCR2 transcript was confirmed by quantitative reverse transcription-polymerase chain reaction performed on spleen and blood total RNA from homozygous hCCR2 knock-in mice. Backcrossing into C57BL/6 genetic background continued to the eighth generation. Transgenic mice were housed in a specific-pathogen-free, temperature-controlled facility that maintained a 12-hour light/12-hour dark cycle. Mice had free access to water and food. Experimental procedures were carried out in accordance with institutional standards for animal care and were approved by the institute's animal care and use committee.
Animals were orally dosed with vehicle or CCR2 antagonists at 3, 10, 30 and 100 mg/kg bid). One hour later, the animals were intraperiponeally injected with sterile thioglycollate (25 mL/kg, ip, Sigma) for induction of peritonitis. Animals were orally treated twice daily with vehicle or CCR2 antagonists. At 72-hour time point, perinoteal cavities were lavaged with 10 mL of sterile saline. […] Percent inhibition of the thioglycollate-induced peritonitis was calculated by comparing the change in number of leukocytes of CCR2 antagonist treated mice to the vehicle-treated mice.

Experiment [3] relates to MCP-1-induced monocyte recruitment to airway. As to the kind of experiment: MCP-1-induced monocyte recruitment to airway of mice. It is filed as in vivo. The following applies: 10 mpk, p.o. bid; 4 μg MCP-1 intranasally; after 48 h.
From the text: as §2
Animals were orally treated with vehicle or CCR2 antagonists at 3, 10, and 30 mg/kg po bid). One hour later, the animals were intranasally dosed with 4 μg of MCP-1 in sterile saline. The animals were orally treated twice daily with vehicle or CCR2 antagonists. After 48 h, mice were euthanized by intraperitoneal injection of anesthesia solution (Sleepaway-Sodium pentobarbital). […] Percent inhibition was calculated by comparing the change in number of total leukocyte counts (including monocytes/macrophages and lymphocytes) of compound-treated mice to the vehicle-treated mice. […]

A short description of experiment [4]: High-fat diet induced obesity and insulin resistance in mice. The following applies: 10 mpk, p.o. bid; high-fat diet obese mice; 40 days treatment. It is filed as in vivo.
From the text: as §1
Obesity was induced by a high-fat diet that derived approximately 60% calories from lipids (D-12492; Research Diets Inc.) in animals for 10-24 weeks at age of 7 weeks. […] Body weight and food intake and fasting blood glucose levels were monitored. Body mass was determined by a NMR analyzer (Burker MiniSpec). […] After an intraperitoneal bolus injection of recombinant human insulin (1.5 U/kg), blood glucose concentrations were measured using a Glucometer before and 15, 30, 45, 60, 90 and 120 minutes after injection. […] Blood glucose concentrations were measured before and after 15, 30, 60, 90, 120 minutes after an oral dose of glucose dissolved in water (1 g/kg). Energy expenditure analysis was monitored by a complete laboratory animal monitor system. […]

Another experiment deals with cell migration. Nature of the experiment: Murine in vivo cell migration assay. On the set-up: species or system mice. As to conditions: 10 mpk, P.O. bid; human MCP-1 on small bowel serosa; 24 hours.
From the text: as §2
Animals were orally dosed with vehicle or CCR2 antagonists at 3, 10 and 30 mg/kg bid. Animals underwent anesthesia and laparotomy. A distal loop of small bowel (5 cm in length) was gently eventrated onto moist sterile gauze. Synthetic human MCP-1 ([…] sterile PBS) or PBS alone was administered drop-wise onto the serosa of the eventrated loop. A suture knot was placed into the mesentery to mark the terminus of the treated area. Twenty-four hours later, the animal was sacrificed and the segment of bowel plus the adjacent region was removed. The tissue was opened along the mesenteric border, pinned flat and the mucosa removed. […]

Regarding `O=C(CNC(=O)c1cccc(C(F)(F)F)c1)NC1CN(C2CCC(O)(c3cncs3)CC2)C1` (centres unmarked) [Example 40, N-{[1-(4-Hydroxy-4-thiazol-5-yl-cyclohexyl)-azetidin-3-ylcarbamoyl]-methyl}-3-trifluoromethyl-benzamide], the “reduction of cell count (efficacious if the inhibition reaches 30%)” value in experiment [1] is given as “efficacious”. Moreover, the “inhibition of thioglycollate-induced peritonitis” value in experiment [2] is > 50%. In experiment [3], the “percent inhibition of total leukocyte counts in BAL” value is > 50%. In addition, the “reduce body weight (percent of weight loss vs vehicle-treated mice)” value in experiment [4] is given as > 8%. Further, the “blocking cell migration (efficacious if the inhibition of cell migration reaches 30% compared with vehicle-treated animals)” value in the experiment on cell migration is listed as “efficacious”.
